Measurements: ChEMBL document CHEMBL1909046, “DrugMatrix in vitro pharmacology data”

Assays:
[1] = target: T1, C-X-C chemokine receptor type 2 (Homo sapiens, UniProt P25025); format: cell membranes, Membrane; conditions: cho-k1; also: in other assays of this panel Not Active means under 50% inhibition at 10 µM
T1 sequence (P25025 whole entry): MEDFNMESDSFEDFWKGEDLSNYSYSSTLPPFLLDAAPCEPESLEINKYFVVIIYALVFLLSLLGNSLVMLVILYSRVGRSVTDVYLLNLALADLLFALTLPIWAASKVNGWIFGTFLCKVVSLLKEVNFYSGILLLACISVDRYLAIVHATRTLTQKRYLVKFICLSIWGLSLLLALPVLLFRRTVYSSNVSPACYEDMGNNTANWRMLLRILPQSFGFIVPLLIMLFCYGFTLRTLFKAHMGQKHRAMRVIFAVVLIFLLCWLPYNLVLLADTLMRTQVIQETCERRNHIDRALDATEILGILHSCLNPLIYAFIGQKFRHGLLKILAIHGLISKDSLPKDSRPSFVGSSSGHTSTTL

[2] = DRUGMATRIX: Purinergic P2X radioligand binding (ligand: [3H] alpha, beta-Methylene-ATP); format: cell membranes, Oryctolagus cuniculus, New Zealand albino, Urinary bladder, Membrane; conditions: Not Active = under 50% inhibition at 10 µM
[3] = target: Acetylcholinesterase (Homo sapiens, UniProt P22303); assay: DRUGMATRIX: Acetylcholinesterase enzyme inhibition (substrate: acetylthiocholine); format: cell-based, HEK293; conditions: hek293; Not Active = under 50% inhibition at 10 µM
Chain of Acetylcholinesterase (P22303 whole entry): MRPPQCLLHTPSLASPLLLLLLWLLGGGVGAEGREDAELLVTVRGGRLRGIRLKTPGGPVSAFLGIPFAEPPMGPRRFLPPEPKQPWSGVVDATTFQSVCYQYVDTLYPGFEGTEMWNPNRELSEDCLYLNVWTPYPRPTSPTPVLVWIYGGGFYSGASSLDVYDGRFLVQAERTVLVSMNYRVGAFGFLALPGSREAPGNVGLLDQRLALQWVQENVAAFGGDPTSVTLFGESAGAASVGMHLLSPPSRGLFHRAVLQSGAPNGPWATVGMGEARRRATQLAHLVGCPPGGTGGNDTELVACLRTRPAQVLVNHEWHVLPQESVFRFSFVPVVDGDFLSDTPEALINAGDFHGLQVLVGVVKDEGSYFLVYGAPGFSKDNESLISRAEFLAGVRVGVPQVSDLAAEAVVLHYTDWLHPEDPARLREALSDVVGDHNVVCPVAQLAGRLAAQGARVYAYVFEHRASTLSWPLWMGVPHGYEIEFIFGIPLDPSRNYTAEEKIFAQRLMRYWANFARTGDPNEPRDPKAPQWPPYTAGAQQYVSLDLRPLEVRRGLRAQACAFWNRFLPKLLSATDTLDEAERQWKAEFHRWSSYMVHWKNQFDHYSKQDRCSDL

[4] = target: T2, Endothelin-1 receptor (Homo sapiens, UniProt P25101); format: cell membranes, Membrane; conditions: cho-k1; also: in other assays of this panel Not Active means under 50% inhibition at 10 µM
T2 sequence (P25101 whole entry): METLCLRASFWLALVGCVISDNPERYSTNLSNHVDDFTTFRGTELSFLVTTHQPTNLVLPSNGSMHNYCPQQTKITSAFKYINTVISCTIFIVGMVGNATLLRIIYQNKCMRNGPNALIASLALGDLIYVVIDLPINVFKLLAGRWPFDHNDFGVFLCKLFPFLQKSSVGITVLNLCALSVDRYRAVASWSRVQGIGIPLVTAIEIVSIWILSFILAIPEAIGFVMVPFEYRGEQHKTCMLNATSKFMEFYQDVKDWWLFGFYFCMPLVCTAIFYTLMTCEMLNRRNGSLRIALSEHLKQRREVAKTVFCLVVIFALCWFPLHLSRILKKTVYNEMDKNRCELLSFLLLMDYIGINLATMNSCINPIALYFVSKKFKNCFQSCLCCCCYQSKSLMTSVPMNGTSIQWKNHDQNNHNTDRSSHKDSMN

[5] = DRUGMATRIX: Tumor Necrosis Factor (TNF), Non-Selective radioligand binding (ligand: [125I] TNF-alpha); format: cell membranes, Membrane; conditions: u-937; Not Active = under 50% inhibition at 10 µM
[6] = target: Receptor tyrosine-protein kinase erbB-2 (Homo sapiens, UniProt P04626); assay: biochemical; format: cell-based, Insect cells; conditions: insect cells;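 also: inhibition of HER2 kinase enzyme activity, measured with Poly(Glu:Tyr) as the phosphorylation substrate; in other assays of this panel Not Active means under 50% inhibition at 10 µM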
Chain of Receptor tyrosine-protein kinase erbB-2 (P04626 whole entry): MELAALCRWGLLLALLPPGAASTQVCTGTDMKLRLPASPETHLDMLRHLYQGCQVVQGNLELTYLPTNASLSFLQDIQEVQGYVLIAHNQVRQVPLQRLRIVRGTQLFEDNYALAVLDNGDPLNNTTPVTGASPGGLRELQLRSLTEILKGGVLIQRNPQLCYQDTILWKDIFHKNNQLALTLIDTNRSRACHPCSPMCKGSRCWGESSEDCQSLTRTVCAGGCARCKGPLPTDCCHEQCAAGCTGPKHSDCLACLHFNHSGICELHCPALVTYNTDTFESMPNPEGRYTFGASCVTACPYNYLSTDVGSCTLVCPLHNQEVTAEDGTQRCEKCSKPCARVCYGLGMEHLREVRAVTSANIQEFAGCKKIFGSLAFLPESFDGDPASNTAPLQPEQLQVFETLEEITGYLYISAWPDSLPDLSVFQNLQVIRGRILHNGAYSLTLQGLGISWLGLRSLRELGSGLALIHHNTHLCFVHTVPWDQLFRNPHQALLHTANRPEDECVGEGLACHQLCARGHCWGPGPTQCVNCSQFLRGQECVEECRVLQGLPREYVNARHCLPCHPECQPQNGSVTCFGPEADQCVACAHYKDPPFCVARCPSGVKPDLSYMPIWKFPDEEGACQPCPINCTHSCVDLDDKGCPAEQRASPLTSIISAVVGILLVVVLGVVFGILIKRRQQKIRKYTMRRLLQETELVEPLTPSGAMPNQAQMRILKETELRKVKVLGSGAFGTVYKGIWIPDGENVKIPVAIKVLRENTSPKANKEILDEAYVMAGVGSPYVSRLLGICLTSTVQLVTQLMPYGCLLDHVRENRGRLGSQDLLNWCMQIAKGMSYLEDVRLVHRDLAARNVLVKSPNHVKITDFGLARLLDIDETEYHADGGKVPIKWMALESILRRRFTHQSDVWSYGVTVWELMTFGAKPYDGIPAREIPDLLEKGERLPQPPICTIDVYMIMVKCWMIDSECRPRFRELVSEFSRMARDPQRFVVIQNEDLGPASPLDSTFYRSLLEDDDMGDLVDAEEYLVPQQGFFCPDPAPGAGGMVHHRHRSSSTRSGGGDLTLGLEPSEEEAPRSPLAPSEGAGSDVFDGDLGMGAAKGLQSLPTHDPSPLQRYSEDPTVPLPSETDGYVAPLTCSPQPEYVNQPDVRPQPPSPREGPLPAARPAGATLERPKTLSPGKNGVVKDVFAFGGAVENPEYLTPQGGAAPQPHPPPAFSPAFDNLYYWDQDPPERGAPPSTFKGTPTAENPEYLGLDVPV

[7] = target: Vascular endothelial growth factor receptor 1 (Homo sapiens, UniProt P17948); assay: biochemical; format: cell-based, HUVEC; conditions: huvec; also: in other assays of this panel Not Active means under 50% inhibition at 10 µM
Chain of Vascular endothelial growth factor receptor 1 (P17948 whole entry): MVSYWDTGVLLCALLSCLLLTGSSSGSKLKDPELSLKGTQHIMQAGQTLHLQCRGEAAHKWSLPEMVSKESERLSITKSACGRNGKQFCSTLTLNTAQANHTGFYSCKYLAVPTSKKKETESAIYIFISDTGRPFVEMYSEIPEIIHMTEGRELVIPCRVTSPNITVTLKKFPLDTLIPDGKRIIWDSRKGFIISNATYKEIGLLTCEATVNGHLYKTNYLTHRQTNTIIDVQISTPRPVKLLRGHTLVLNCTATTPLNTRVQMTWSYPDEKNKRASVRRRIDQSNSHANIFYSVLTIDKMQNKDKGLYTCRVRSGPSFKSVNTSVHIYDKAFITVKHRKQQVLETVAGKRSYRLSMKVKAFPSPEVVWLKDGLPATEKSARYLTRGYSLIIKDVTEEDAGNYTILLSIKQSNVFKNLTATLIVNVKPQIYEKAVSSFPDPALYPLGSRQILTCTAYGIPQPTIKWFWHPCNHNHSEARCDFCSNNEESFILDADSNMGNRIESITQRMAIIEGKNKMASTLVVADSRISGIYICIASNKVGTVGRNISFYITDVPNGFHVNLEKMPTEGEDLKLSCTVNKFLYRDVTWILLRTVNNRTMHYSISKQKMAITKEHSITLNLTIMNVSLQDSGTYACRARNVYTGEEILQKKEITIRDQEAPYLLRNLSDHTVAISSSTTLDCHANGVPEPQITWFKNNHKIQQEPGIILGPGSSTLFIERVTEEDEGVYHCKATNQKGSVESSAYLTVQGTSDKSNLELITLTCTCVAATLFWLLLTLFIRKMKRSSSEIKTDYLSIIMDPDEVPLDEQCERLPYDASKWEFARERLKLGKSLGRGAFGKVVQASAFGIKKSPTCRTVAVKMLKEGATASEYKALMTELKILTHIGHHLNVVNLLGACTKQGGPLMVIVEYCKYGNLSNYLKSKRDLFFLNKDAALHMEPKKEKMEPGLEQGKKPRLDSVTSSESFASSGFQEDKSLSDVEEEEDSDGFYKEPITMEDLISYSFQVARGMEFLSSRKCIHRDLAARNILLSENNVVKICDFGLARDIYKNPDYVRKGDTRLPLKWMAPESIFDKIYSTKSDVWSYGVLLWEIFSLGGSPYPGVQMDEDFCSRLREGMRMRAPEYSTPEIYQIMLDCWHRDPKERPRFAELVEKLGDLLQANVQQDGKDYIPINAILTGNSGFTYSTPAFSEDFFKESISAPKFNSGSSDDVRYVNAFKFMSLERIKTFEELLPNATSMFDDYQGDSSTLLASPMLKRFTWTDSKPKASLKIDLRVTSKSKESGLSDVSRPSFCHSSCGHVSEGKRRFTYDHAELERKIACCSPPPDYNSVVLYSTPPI

[8] = target: Carbonic anhydrase 2 (Homo sapiens, UniProt P00918); assay: DRUGMATRIX: Carbonic Anhydrase II enzyme inhibition (substrate: 4-Nitrophenyl acetate (4-NPA)); format: tissue-based; conditions: erythrocyte; Not Active = under 50% inhibition at 10 µM
[9] = target: Cytochrome P450 2E1 (Homo sapiens, UniProt P05181); conditions: bti-tn-5b1-4; also: in other assays of this panel Not Active means under 50% inhibition at 10 µM
Chain of Cytochrome P450 2E1 (P05181 whole entry): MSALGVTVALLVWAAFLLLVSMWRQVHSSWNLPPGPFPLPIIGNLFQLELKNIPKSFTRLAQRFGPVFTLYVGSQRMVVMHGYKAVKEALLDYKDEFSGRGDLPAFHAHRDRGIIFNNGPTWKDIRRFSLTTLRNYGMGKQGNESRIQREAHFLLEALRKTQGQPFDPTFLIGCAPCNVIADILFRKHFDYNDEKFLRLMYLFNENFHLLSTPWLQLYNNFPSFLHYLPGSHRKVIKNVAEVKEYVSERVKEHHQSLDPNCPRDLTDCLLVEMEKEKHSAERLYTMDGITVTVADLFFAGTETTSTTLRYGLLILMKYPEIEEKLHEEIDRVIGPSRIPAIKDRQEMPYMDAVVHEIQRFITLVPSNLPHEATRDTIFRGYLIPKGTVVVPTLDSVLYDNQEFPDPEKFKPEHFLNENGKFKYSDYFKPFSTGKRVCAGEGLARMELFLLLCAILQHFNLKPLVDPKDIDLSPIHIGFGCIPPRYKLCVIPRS

CNC1(c2ccccc2Cl)CCCCC1=O (stereo not given) [KETAMINE]
Not Active: IC50 [1] | IC50 [2] | Ki [2] | IC50 [3] | IC50 [4] | IC50 [5] | Ki [5] | IC50 [6] | IC50 [7] | IC50 [8] | IC50 [9] | Ki [9]

N#Cc1ccc(C(c2ccc(C#N)cc2)n2cncn2)cc1 [LETROZOLE]
Not Active: IC50 [1] | IC50 [2] | Ki [2] | IC50 [3] | IC50 [4] | IC50 [5] | Ki [5] | IC50 [6] | IC50 [7] | IC50 [8] | IC50 [9] | Ki [9]

CCN(CC)CC(=O)Nc1c(C)cccc1C [LIDOCAINE]
Not Active: IC50 [1] | IC50 [2] | Ki [2] | IC50 [3] | IC50 [4] | IC50 [5] | Ki [5] | IC50 [6] | IC50 [7] | IC50 [8] | IC50 [9] | Ki [9]

O=C1Nc2ccc(Cl)cc2C(c2ccccc2Cl)=NC1O (stereo not given) [LORAZEPAM]
Not Active: IC50 [1] | IC50 [2] | Ki [2] | IC50 [3] | IC50 [4] | IC50 [5] | Ki [5] | IC50 [6] | IC50 [7] | IC50 [8] | IC50 [9] | Ki [9]

CO[C@@H]1[C@@H](OC)[C@H](C)[C@@](O)(CC(=O)O)O[C@H]1[C@H](C)[C@H]1O[C@@]2(CC[C@@](C)([C@H]3CC[C@@](C)([C@@H]4O[C@@H]([C@H]5O[C@](C)(O)[C@H](C)C[C@@H]5C)C[C@@H]4O[C@@H]4C[C@H](OC)[C@@H](OC)[C@H](C)O4)O3)O2)C[C@H](O)[C@H]1C [MADURAMICIN ACID]
Not Active: IC50 [1] | IC50 [2] | Ki [2] | IC50 [3] | IC50 [4] | IC50 [5] | Ki [5] | IC50 [6] | IC50 [7] | IC50 [8] | IC50 [9] | Ki [9]

COc1c2occc2cc2ccc(=O)oc12 [METHOXSALEN]
Not Active: IC50 [1] | IC50 [2] | Ki [2] | IC50 [3] | IC50 [4] | IC50 [5] | Ki [5] | IC50 [6] | IC50 [7] | IC50 [8] | IC50 [9] | Ki [9]

C[C@H]1C[C@@H]2[C@H]([C@@H](O)C[C@@]3(C)[C@H]2CC[C@]3(O)C(=O)CO)[C@@]2(C)C=CC(=O)C=C12 [METHYLPREDNISOLONE]
Not Active: IC50 [1] | IC50 [2] | Ki [2] | IC50 [3] | IC50 [4] | IC50 [5] | Ki [5] | IC50 [6] | IC50 [7] | IC50 [8] | IC50 [9] | Ki [9]

Cc1cccc(C)c1OCC(C)N (stereo not given) [MEXILETINE]
Not Active: IC50 [1] | IC50 [2] | Ki [2] | IC50 [3] | IC50 [4] | IC50 [5] | Ki [5] | IC50 [6] | IC50 [7] | IC50 [8] | IC50 [9] | Ki [9]

Nc1cc(N2CCCCC2)nc(N)[n+]1[O-] [MINOXIDIL]
Not Active: IC50 [1] | IC50 [2] | Ki [2] | IC50 [3] | IC50 [4] | IC50 [5] | Ki [5] | IC50 [6] | IC50 [7] | IC50 [8] | IC50 [9] | Ki [9]

CO[C@H]1/C=C/O[C@@]2(C)Oc3c(C)c(O)c4c(O)c(c(/C=N/N5CCN(C6CCCC6)CC5)c(O)c4c3C2=O)NC(=O)/C(C)=C\C=C\[C@H](C)[C@H](O)[C@@H](C)[C@@H](O)[C@@H](C)[C@H](OC(C)=O)[C@@H]1C [RIFAPENTINE]
Not Active: IC50 [1] | IC50 [2] | Ki [2] | IC50 [3] | IC50 [4] | IC50 [5] | Ki [5] | IC50 [6] | IC50 [7] | IC50 [8] | IC50 [9] | Ki [9]

CCCCOc1cc(CC2CNC(=O)N2)ccc1OC (stereo not given) [RO-201724]
Not Active: IC50 [1] | IC50 [2] | Ki [2] | IC50 [3] | IC50 [4] | IC50 [5] | Ki [5] | IC50 [6] | IC50 [7] | IC50 [8] | IC50 [9] | Ki [9]

CC[C@@H](C(=O)[C@@H](C)[C@@H](O)[C@H](C)[C@@H]1O[C@@H]([C@@H](CC)C(=O)O)CC[C@@H]1C)[C@H]1O[C@]2(C=C[C@@H](O)[C@]3(CC[C@@](C)([C@H]4CC[C@](O)(CC)[C@H](C)O4)O3)O2)[C@H](C)C[C@@H]1C [SALINOMYCIN]
Not Active: IC50 [1] | IC50 [2] | Ki [2] | IC50 [3] | IC50 [4] | IC50 [5] | Ki [5] | IC50 [6] | IC50 [7] | IC50 [8] | IC50 [9] | Ki [9]

O=C(Oc1ccccc1C(=O)O)c1ccccc1O [SALSALATE]
Not Active: IC50 [1] | IC50 [2] | Ki [2] | IC50 [3] | IC50 [4] | IC50 [5] | Ki [5] | IC50 [6] | IC50 [7] | IC50 [8] | IC50 [9] | Ki [9]

O=C(O)c1cn(-c2ccc(F)cc2)c2cc(N3CCNCC3)c(F)cc2c1=O [SARAFLOXACIN]
Not Active: IC50 [1] | IC50 [2] | Ki [2] | IC50 [3] | IC50 [4] | IC50 [5] | Ki [5] | IC50 [6] | IC50 [7] | IC50 [8] | IC50 [9] | Ki [9]

CC(C)NCC(O)c1ccc(NS(C)(=O)=O)cc1 (stereo not given) [SOTALOL]
Not Active: IC50 [1] | IC50 [2] | Ki [2] | IC50 [3] | IC50 [4] | IC50 [5] | Ki [5] | IC50 [6] | IC50 [7] | IC50 [8] | IC50 [9] | Ki [9]

O.O.O.O.O.O.[Cl-].[Cl-].[Sr+2] [STRONTIUM CHLORIDE HEXAHYDRATE]
Not Active: IC50 [1] | IC50 [2] | Ki [2] | IC50 [3] | IC50 [4] | IC50 [5] | Ki [5] | IC50 [6] | IC50 [7] | IC50 [8] | IC50 [9] | Ki [9]

O=C1C(CC[S+]([O-])c2ccccc2)C(=O)N(c2ccccc2)N1c1ccccc1 (stereo not given) [SULFINPYRAZONE]
Not Active: IC50 [1] | IC50 [2] | Ki [2] | IC50 [3] | IC50 [4] | IC50 [5] | Ki [5] | IC50 [6] | IC50 [7] | IC50 [8] | IC50 [9] | Ki [9]

NC(=O)N1C(=O)/C(=C(\O)c2cccs2)c2cc(Cl)ccc21 [TENIDAP]
Not Active: IC50 [1] | IC50 [2] | Ki [2] | IC50 [3] | IC50 [4] | IC50 [5] | Ki [5] | IC50 [6] | IC50 [7] | IC50 [8] | IC50 [9] | Ki [9]

COc1cc2nc(N3CCN(C(=O)C4CCCO4)CC3)nc(N)c2cc1OC (stereo not given) [TERAZOSIN]
Not Active: IC50 [1] | IC50 [2] | Ki [2] | IC50 [3] | IC50 [4] | IC50 [5] | Ki [5] | IC50 [6] | IC50 [7] | IC50 [8] | IC50 [9] | Ki [9]

CN(C/C=C/C#CC(C)(C)C)Cc1cccc2ccccc12 [TERBINAFINE]
Not Active: IC50 [1] | IC50 [2] | Ki [2] | IC50 [3] | IC50 [4] | IC50 [5] | Ki [5] | IC50 [6] | IC50 [7] | IC50 [8] | IC50 [9] | Ki [9]
